# According to patent publication US20200170968A1 (priority 2014, published 2020):
# Assays:
# viral RT = target: T1, viral RT (Human immunodeficiency virus type 1 group M subtype B, UniProt P04585); assay: Reverse transcriptase (RT) inhibition, Lenti RT Activity kit; format: biochemical, HIV; conditions: 25 μM
# T1 construct: endogenous in cells; host or cells: viral sample (virus-containing supernatant; probably from PMA-induced ACH-2 cells, inferred)
# Protocol: The ability of the compounds to inhibit the activity of viral RT was determined by a Lenti RT Activity kit (Cavidi, Uppsala, Sweden) according to the manufacturer's instructions (protocol A): A poly-A plate was incubated with the reaction buffer for up to 1 h at 33° C. Afterwards, the viral sample together with NACA, an inhibition control (nevirapin) or a vehicle control (DMSO) were added and incubated overnight at 33° C. The plate was washed, exposed to the tracer for 90 min at 33° C. and washed again, before the substrate was added. The plate was incubated in the dark and subsequently read at 405 nm in a Multiskan RC (Labsystem).
# For the data shown in FIG. 13A, a poly-A plate was incubated with the reaction buffer and subsequently, the viral sample (1:500 dilution) together with the NACA, nevirapin (inhibition control) or DMSO (vehicle control) was added and incubated overnight. The plate was exposed to the tracer and the substrate was added. The plate was incubated in the dark and read at 405 nm. The value for the vector control (DMSO) was set to 100% in each individual repeat and all other values were normalized to this reference value. The data shown in FIG. 13A are means of three independent experiments; the error bars represent the SEM. P-values are indicated if significant (*: p<0.05; **: p<0.01; ***: p<0.001).
# [1] = tested on: viral integration in TZM-b1 cells; assay: Infectivity assay in TZM-b1 cells (luciferase; viral integration); format: cell-based, HIV-1; conditions: 10 mM; 40 h
# Protocol: 1×10^5 TZM-b1 cells were infected with diluted virus suspension (see 2.3 Virus expression) in a total of 0.2 ml DMEM medium in the presence of NACA, an inhibition control (nevirapin) or a vehicle control (DMSO). After 40 h at 37° C., the cells were assayed in a Luminoskan Ascent (Thermo Labsystems) for luciferase activity using the OneGlo luciferase assay system (Promega).
# To determine additional targets of NACA inhibition within early stage processes of viral integration (viral entry to integration into the host genome), an infectivity assay was performed. TZM-b1 cells contain a luciferase gene that is under control of the HIV-1 promoter. Upon viral entry, transcription and integration into the host genome, luciferase is expressed and can convert the added substrate to the fluorescent product. The amount of measured product is quantitatively correlated to the amount of integrated virus in the test culture.
# For the data in FIG. 14, TZM-b1 cells were infected with a diluted virus suspension in a total of 0.2 ml DMEM medium in the presence of the 25 μM or 10 mM NACA, an inhibition control (nevirapin) or a vehicle control (DMSO). Additionally, one well was treated with medium only instead of the virus dilution (no virus, negative control). After 40 h, the cells were assayed for luciferase activity. […] P-values were calculated between the vehicle control and the individual treatments. […]
# p24 in ACH-2 cells = assay: Production of viral particles (p24) in PMA-stimulated ACH-2 cells; format: cell-based, HIV; conditions: ACH-2 cells with PMA, 3 days, indicated amounts of NACA
# Protocol: ACH-2 cells (1×10^6 cells/ml) were cultured with 100 nM PMA. After three days the cell culture supernatant was collected, cleared by centrifugation at 300×g for 10 min and passed through a 0.45 μm filter. p24 content was measured in an Architect i2000SR (Abbott Laboratories, Ill., USA) as a measurement for virus content and supernatant was either used directly or frozen at −80° C. for later usage.
# (§1) To measure the infectivity of particles produced in the presence of the compounds, ACH-2 cells (1×10^6 cells/ml) were cultured with 100 nM PMA in the presence of the indicated amount of NACA or DMSO (negative control). After 3 days, the p24 content of the clarified supernatant (see 2.3 Virus expression) was measured. The supernatant was used for an infectivity test (see 2.4 Infectivity test) without the addition of any compound to the wells. The final dilution of the viral supernatant in the infectivity test was 1:100. A control experiment was performed, in which virus particles produced without the addition of NACA, were used for the infectivity test.
# For the data in FIG. 15A, ACH-2 cells were cultured with […] in the presence of the indicated amount of NACA, DMSO (vector control=0 mM NACA) or no additive (control). After 3 days, the supernatant was clarified and the amount of p24 was measured by ELISA. […] P-values were calculated between the vehicle control and the individual treatments. […]
# CEM cells [2] = assay: Viability test (trypan blue); format: cell-based, Human; conditions: concentrations up to 10 mM
# Protocol: CEM cells (3×10^5 cells/ml) were seeded and grown in the presence or absence of indicated concentrations of NACA. The medium was replaced and added new NACA after two days. After 48 and 96 hours, respectively, aliquots of the cells were harvested and combined with trypan blue dye before analyzed microscopically on a hemocytometer counting chamber. Blue cells were counted as nonviable and to estimate the amount of viable cells the amount of live cells was compared to the total amount of cells.
# HIV infected PBMCs = assay: Cell viability of HIV infected PBMCs; format: cell-based; conditions: varying concentrations of NACA
# Protocol: (§2) Peripheral blood mononuclear cells (PBMC) were acutely infected with HIV-1 and stimulated with NACA. Cell viability was measured in HIV infected PBMCs with varying concentrations of NACA.
# HIV particles = assay: Infectivity of viral particles produced in the presence of NACA (TZM-b1 luciferase); format: cell-based
# Protocol: as §1
# For the data in FIG. 15B, the clarified supernatant was further used for an infectivity test without the addition of any compound to the wells. The NACA amount stated in the graph refers to the amount in which the HIV producing cells were grown. TZM-b1 cells were infected with the diluted virus suspensions in a total of 0.2 ml DMEM (total dilution of virus supernatant: 1:100). After 40 h, the cells were assayed for luciferase activity. Additionally, a control experiment was performed, in which virus particles produced in the control set up, were used for the infectivity test. The same amount of NACA that could have been carried over with the virus containing supernatant in the original experiment was added to the infectivity test (final concentration: 1/100 of the indicated amount in the viral growth culture). The value for the control was set to 100% in each individual repeat and all other values were normalised these reference values. The data are means of three independent experiments; the error bars represent the SEM. P-values were calculated between the vehicle control and the individual treatments. P-values are indicated if significant (*: p<0.05; **: p<0.01; ***:p<0.001).
# CEM cells [3] = assay: Cytostatic activity assay (cell proliferation, Coulter counter); format: cell-based; conditions: Homo sapiens, CCRF-CEM, 72 h, 50% inhibitory concentration of cell proliferation
# Protocol: The cytostatic activity assay was performed in 96-well microliter plates. 5-7.5×10^4 cells and a given amount of the test compound were added to each well. The cells were allowed to proliferate for 72 h at 37° C. is a humidified CO2-controlled atmosphere. At the end of the incubation period, the cells were counted in a Coulter counter. The IC50 (half maximal inhibitory concentration) was defined as the concentration of the compound that inhibited cell proliferation by 50%.
# HIV-2 (ROD) = assay: Inhibition of HIV-2 replication in CEM cells (giant cell / syncytia formation); format: cell-based; conditions: for EC50: concentration required to protect CEM cells against the cytopathogenicity of HIV by 50%, HIV-2 (ROD)
# Protocol: (§3) CEM cells were suspended in fresh culture medium and infected with HIV-1 (IIIB) or HIV-2 (ROD) at 100 CCID50 per ml of cell suspension. 100 μl of the infected cell suspension were transferred to microplate wells, mixed with 100 μl of the appropriate dilutions of compounds, and further incubated at 37° C. After 4 days, giant cell formation was recorded microscopically and the number of giant cells was estimated as percentage of the number of giant cells present in the non-treated virus-infected cell cultures.
# HIV-1 (IIIB) = assay: Inhibition of HIV-1 replication in CEM cells (giant cell / syncytia formation); format: cell-based; conditions: for EC50: concentration required to protect CEM cells against the cytopathogenicity of HIV by 50%, HIV-1 (IIIB)
# Protocol: as §3
# [4] = target: T2, recombinant HIV-1 protease (Human immunodeficiency virus type 1 group M subtype B, UniProt P04585); assay: Protease inhibition, SensoLyte HIV-1 protease assay kit; format: biochemical
# T2 construct: Recombinant HIV-1 protease was purchased from AnaSpec Inc; purchased AnaSpec Inc
# Protocol: The ability of NACA to inhibit the activity of recombinant HIV-1 protease was determined by a SensoLyte […] HIV-1 protease assay kit (AnaSpec Inc.) according to manufacturer's instructions: The compounds and the HIV-1 protease were added to a dark-bottom 96 well plate and the following controls were included: positive control (without NACA), inhibition control (pepstatin A), vehicle control (DMSO), NACA controls (to test for autofluorescence) and substrate control (assay buffer only). The plate as well as the HIV-1 protease substrate solution were incubated 15 minutes at 37° C. and 50 μl protease substrate was added to all wells. The fluorescence was measured at Ex/Em=490 nm/520 nm with a Varioskan Flash (Thermo Electron Corporation).
# For the data shown in FIG. 13B, the HIV-1 protease together with NACA, a positive control (pepstatin A) or DMSO (vehicle control) were added to a dark-bottom 96 well plate. The plate as was incubated and protease substrate was added to all wells. The fluorescence was measured at Ex/Em=490 nm/520 nm. The value for the vector control (DMSO) was set to 100% in each individual repeat and all other values were normalized to this reference value. The data are means of three independent experiments; the error bars represent the SEM. P-values are indicated if significant (*: p<0.05; **: p<0.01; ***: p<0.001).
# HIV-1 = assay: HIV replication in acutely infected PBMC / lymphocytes; format: cell-based
# Protocol: In some embodiments, the present invention relates to a method for inhibiting HIV replication. Data is attached reporting the results of an HIV study in lymphocytes with 100% block of replication at 20 mM concentration.
# as §2
# U1 cells = assay: U1 cell viability and proliferation ([3H]-thymidine incorporation); format: cell-based; conditions: HIV-infected U1 cells
# Protocol: Chronically HIV-infected U1 cells (monocytes) were stimulated for 6 hours in the presence of NACA. Cytokines (IL-6, […]) or PMA were added and maintained in the cell cultures for 6 days, collecting supernatants daily. Cell viability and proliferation were checked by optical microscopy, and [3H]-thymidine incorporation, and calcein AM assay. Reverse transcriptase-polymerase chain reaction (RT-PCR) and reverse transcriptase (RT) activity assay as readout of virion production.
# [5] = tested on: Chronically HIV-infected U1 cells (monocytes); assay: Reverse transcriptase (RT) activity as readout of virion production in chronically HIV-infected U1 cells; format: cell-based
smiles,measurement,setting,value
CC(=O)N[C@@H](CS)C(N)=O,effect on viral RT activity,viral RT,no effect
same,effect on viral integration,[1],more predominant effect
same,amount of p24,p24 in ACH-2 cells,not affected
same,CEM cells alive,CEM cells [2],more than 99%
same,cell viability,HIV infected PBMCs,did not affect cell viability
same,effect on infectivity when NACA was added after the production of the viral particles (NACA added),HIV particles; final concentration 1/100 of the indicated amount,not visible
same,infectivity of the particles produced in the presence of NACA (NACA grown),HIV particles; higher concentrations (5 mM to 10 mM),decreased significantly
same,infectivity of the particles produced in the presence of NACA (NACA grown),HIV particles; low concentrations (0 mM to 1 mM),auxiliary effect
same,IC50,CEM cells [3],~564 µM
same,Ratio IC50/EC50 (CEM) HIV-2,HIV-2 (ROD); CEM cells,2
same,EC50,"HIV-2 (ROD); Human immunodeficiency virus 2, CCRF-CEM",~230 µM
same,EC50,HIV-2 (ROD),234 µM
same,Ratio IC50/EC50 (CEM) HIV-1,HIV-1 (IIIB); CEM cells,3
same,EC50,"HIV-1 (IIIB); Human immunodeficiency virus 1, IIIB, CCRF-CEM",~230 µM
same,EC50,HIV-1 (IIIB),224 ± 86 µM
same,effect on viral protease activity,[4]; 25 μM,no effect
same,effect on protease activity,[4]; 10 mM,significant effect
same,effect on HIV replication,HIV-1; HIV infected PBMCs,inhibitor effect
same,HIV replication inhibited,"HIV-1; HIV infected PBMCs, concentrations of 10 mM and above",~100%
same,block of replication,"HIV-1; lymphocytes, 20 mM concentration",100%
same,U1 cell viability or proliferation as measured by [3H]-thymidine incorporation,U1 cells,did not have a large effect
same,reverse transcriptase activity,[5]; U1 cells activated with 1 ng/mL TNF-α or 10 ng/mL IL-6,significant reduction
same,concentration effective in reducing HIV replication in activated U1 cells (RT activity),"[5]; U1 cells activated with 1 ng/mL TNT-α, 10 ng/mL IL-6 or 10 nM PMA",1 to 10 µM
same,relative amounts of reverse transcriptase activity,"[5]; U1 cells, between days 3 and 5",did not alter
same,concentration effective in reducing HIV replication in activated U1 cells,[5]; activated U1 cells,10 to 333 µM
